Results taken from patent publication US20250017888A1, “COMPOUNDS FOR TREATING DISEASES ASSOCIATED WITH HYALURONAN OVERPRODUCTION” (THE ROYAL VETERINARY COLLEGE, priority 2021, published 2025).
Like-named read-outs stand apart in the source and are kept apart here.

Legend:
Assay type in all cases: cell-based
[1] = test system: chondrosarcoma cells; assay: Uptake of flavonoids into chondrosarcoma cells by intracellular fluorescence
Method: Confluent monolayers of chondrosarcoma cells on 96 well microtiter plates were incubated with 100 μM solutions of flavonoids in serum-free Quantum medium. Changes in fluorescence were monitored from the bottom of the wells at excitation and emission wavelengths of 340 nm and 450 nm for xanthohumol and at 440 nm and 530 nm for quercetin, respectively.
Flavonoids are weakly fluorescent in aqueous buffer, but greatly enhance the fluorescence in the presence of proteins (Sengupta, B. and Sengupta, P. K., Biochem. Biophys. Res. Commun., 2002, 299, 400-403). This property was used to follow the uptake of quercetin and xanthohumol into chondrosarcoma cells.

[2] = test system: hyaluronan export from chondrosarcoma cells; assay: Inhibition of hyaluronan export / production in chondrosarcoma cells; conditions: for inhibition of hyaluronan export: culture supernatant after 2 days, comparison with parent compound, particularly below 3 μM
Method: (§1) The hyaluronan synthase activity (Prehm, P. and Schumacher, U., Biochem. Pharmacol. 2004, 68, 1401-1410), the cytotoxicity of the drugs (O'Brien, J. et al., Eur. J. Biochem. 2000, 267, 5421-5426), proteoglycan synthesis rate, hyaluronan (Prehm, P. J. Rheumatol., 2005, 32, 690-696) and proteoglycan (Bjornsson, S. Anal. Biochem. 1993, 210, 282-291) were determined as described. The effect of the prenylflavonoids on the MRP5 export rate was measured with fluorescein diacetate as described (Schulz, T., Schumacher, U., and Prehm, P., J Biol. Chem., 2007, 282, 20999-21004). The determination of the IC50 values on the phosphodiesterase 5 was performed according to the instructions of BPS Bioscience. The culture of bovine chondrocytes in alginate beads and of explants of bovine cartilage was described previously (Deiters, B. and Prehm, P. Arthritis Res. Ther., 2008, 10, R8; Prehm, P. J. Rheumatol. 2005, 32, 690-696). Osteoarthritic reactions were induced in chondrocytes growing in alginate beads by incubation with medium containing 10 ng/ml of II-17 for 6 days, and in cartilage explants with 10 ng/ml of II-17 and 5 ng/ml of II-1α. The supernatants were withdrawn and stored at −20° C. for later analysis. The explants were weighed and extracted with 1 ml of 4 M guanidinium-HCl for 72 hours at 4° C. The proteoglycan concentrations were determined in the extracts.
Chondrosarcoma cells were plated on a 96 well microtiter plate and in the presence of increasing flavonoid concentrations. After 2 days the concentration of hyaluronan was determined in the culture supernatant.

[3] = test system: chondrosarcoma cells (SW1353); assay: Alamar blue staining of chondrosarcoma; conditions: Homo sapiens
Method: as §1
Chondrosarcoma cells (SW1353 from the American Type Culture Collection) were grown in Dulbecco's medium supplemented with streptomycin/penicillin (100 units of each/ml), 10% foetal calf serum or in serum free Quantum medium supplemented with streptomycin/penicillin (100 units of each/ml), kanamycin (100 units/ml).

[4] = Alamar blue toxicity assay (FIG. 1); conditions: below concentrations of 100 μM
Method: as §1
The toxicity was determined by the Alamar blue assay.

[5] = test system: chondrosarcoma cells; assay: Inhibition of chondrosarcoma cell growth (Coulter counter); conditions: cell numbers after 2 days
Method: Chondrosarcoma cells were plated on a 24 well microtiter plate and in the presence of increasing flavonoid concentrations. After 2 days the cells were trypsinized and the cell numbers were determined in a Coulter counter.

[6] = test system: bovine cartilage explants; assay: Proteoglycan loss from interleukin activated bovine cartilage explants; conditions: interleukin stimulated, 5 days
Method: Cartilage explants were weighed (average wet weight: 20 mg) incubated in the absence and presence of IL-1 (2 ng/ml) and the inhibitors at various concentrations for 5 days. The tissues were extracted with 1.5 ml of a solution of 4 M guanidinium hydrochloride, 0.1 M ε-aminohexanoid acid, 5 mM benzamidine, 10 mM N-ethylmaleinimide, 0.5 mM phenylmethylsulfonyl fluoride for 3 days at 4° C. The solution was centrifuged for 5 min at 10.000 g and the proteoglycans were determined in the supernatant by the alcian blue method as described (Bjornsson, S., Anal. Biochem., 1993, 210, 282-291).
Bovine cartilage explants were incubated in the absence and presence of interleukin for stimulation of osteoarthritic reactions and the indicated concentrations of the xanthohumol-betaine (FIG. 6A), xanthohumol-prothiazole (FIG. 6B), quercetin-prothiazole (FIG. 6C), quercetin (FIG. 6D) and xanthohumol (FIG. 6E) for 5 days. The cartilage explants were weighed and the proteoglycan concentrations were determined in the cartilage explants (solid bars) and culture supernatants (open bars).

[7] = test system: fibroblasts; assay: Alamar blue staining of fibroblasts; conditions: Fibroblast
Method: as §1

Row | Compound | uptake into chondrosarcoma cells (intracellular fluorescence) ([1]; concentration dependence, FIG. 2A) | IC50 [2] [µM] | IC50 [3] [µM] | toxicity in Alamar blue assay [4] | inhibition of chondrosarcoma cell growth [5] | uptake into chondrosarcoma cells (intracellular fluorescence) [1] | inhibition of hyaluronan export [2] | inhibition of proteoglycan loss (protective effect) [6] | IC50 [7] [µM]
1 | O=c1c(O)c(-c2ccc(O)c(O)c2)oc2cc(O)cc(O)c12 [Quercetin, reference compound] | did not accumulate inside the cells | 16 | 70 | not toxic | – | – | – | – | –
2 | COc1cc(O)c(CC=C(C)C)c(O)c1C(=O)/C=C/c1ccc(OC(=O)CN(C=O)/C=C\SC(C)=O)cc1 [Xanthohumol-prothiazole, 4-((E)-3-(2,4-dihydroxy-6-methoxy-3-(3-methylbut-2-en-1-yl)phenyl)-3-oxoprop-1-en-1-yl)phenyl 2-(N-((Z)-2-(acetylthio)vinyl)formamido)acetate] | – | 20 | 69 | not toxic | more effective at submicromolar concentrations | taken up in a concentration dependent manner | more effective than their parent compound | similarly effective | 74
3 | CC(=O)S/C=C\N(C=O)CC(=O)Oc1ccc(-c2oc3cc(O)cc(O)c3c(=O)c2O)cc1O [Quercetin-prothiazole, (Z)-2-hydroxy-4-(3,5,7-trihydroxy-4-oxo-4H-chromen-2-yl)phenyl 2-(N-(2-(acetylthio)vinyl)formamido)acetate] | – | 8 | 61 | not toxic | more effective at submicromolar concentrations | taken up in a concentration dependent manner | more effective than their parent compound | similarly effective | 66
